Read-outs that look alike come from different tables or passages of the source.
How the values were obtained:
Mycobacterium avium = assay: standard disc-plate assay; format: cell-based; conditions: read-out: Zone Diameters
Salmonella gallinarium = assay: standard disc-plate assay; format: cell-based; conditions: read-out: Zone Diameters
[1] = tested on: Bacillus stereothermophilus; assay: standard disc-plate assay; format: cell-based; conditions: read-out: Zone Diameters
[2] = tested on: Trichophyton mentagroprophytes; assay: standard disc-plate assay; format: cell-based; conditions: read-out: Zone Diameters
Candida albicans = assay: standard disc-plate assay; format: cell-based; conditions: read-out: Zone Diameters
Bacillus subtilis = assay: standard disc-plate assay; format: cell-based; conditions: read-out: Zone Diameters
acute toxicity in mice = conditions: mouse, in vivo, ip, intraperitoneal, formulated in aqueous PVP, read-out: Intraperitoneal LD50
Excerpt: ^a Compounds formulated in aqueous PVP
^b Route test compound administered

[3] = tested on: Saccharomyces pastorianus; assay: standard disc-plate assay; format: cell-based; conditions: read-out: Zone Diameters
Neurospora crassa = assay: standard disc-plate assay; format: cell-based; conditions: read-out: Zone Diameters
Proteus vulgaris = assay: standard disc-plate assay; format: cell-based; conditions: read-out: Zone Diameters
Staphylococcus aureus = assay: standard disc-plate assay; format: cell-based; conditions: read-out: Zone Diameters
Pseudomonas solanacearum = assay: microbe, parasite or virus in culture; format: cell-based; conditions: Ralstonia solanacearum, read-out: Zone Diameters
Escherichia coli = assay: standard disc-plate assay; format: cell-based
Method: In Table IX the standard discplate-assay activity of the A52688 factors is summarized. Activity is measured as the diameter (in mm) of the observed zone of inhibition; the diameter of the disc used in each case was 6.35 mm.

Adenocarcinoma 755 = assay: murine-transplanted tumor adenocarcinoma 755 in mice; format: in vivo
Method: A52688 factors A, C, D, E, F, G, H, J and K and the specified acyl esters of factors A, C, D, E, G, H, J and K are especially useful as oncolytic agents.
Table X summarizes the results of experiments in which mice bearing the murine-transplanted tumor adenocarcinoma 755 were treated with compounds of this invention. In each test the compound was administered by the intraperitoneal route at specified dose levels. The compound was administered over a ten-day period, either on a daily basis or on days one, five and nine, as indicated.

Serratia marcescens = assay: standard disc-plate assay; format: cell-based; conditions: read-out: Zone Diameters
Micrococcus luteus = assay: standard disc-plate assay; format: cell-based; conditions: read-out: Zone Diameters
Pseudomonas aeruginosa = assay: standard disc-plate assay; format: cell-based; conditions: read-out: Zone Diameters
[4] = read-out: Zone Diameters, conc 0.1 mg/ml, disc 6.35 mm
[5] = read-out: Zone Diameters, in minimal medium, conc 0.1 mg/ml, disc 6.35 mm
[6] = 0.25 mg/kg i.p., daily for 10 days
[7] = 0.25 mg/kg i.p., daily for 10 days, of 10 mice tested (9 for factor E)
[8] = 0.50 mg/kg i.p., daily for 10 days
[9] = 0.50 mg/kg i.p., daily for 10 days, of 10 mice tested (8 for factor E)
[10] = 1.00 mg/kg i.p., daily for 10 days
[11] = 1.00 mg/kg i.p., daily for 10 days, of 10 (factor E) or 9 (factor F) mice tested
[12] = conc 0.1 mg/ml, disc 6.35 mm, ^b overgrowth: factor F
[13] = conc 0.1 mg/ml, disc 6.35 mm, ^b overgrowth: factors B, C, F
[14] = conc 0.1 mg/ml, disc 6.35 mm, ^b overgrowth: factors A, C, E, F, G
[15] = conc 0.1 mg/ml, disc 6.35 mm, ^b overgrowth: factor B
[16] = conc 0.1 mg/ml, disc 6.35 mm, read-out: Zone Diameters
[17] = in minimal medium, conc 0.1 mg/ml, disc 6.35 mm, read-out: Zone Diameters
[18] = conc 0.1 mg/ml, disc 6.35 mm, ^b overgrowth: factor C

| SMILES | zone of inhibition at 100 µg/mL (Mycobacterium avium) | zone of inhibition at 100 µg/mL (Salmonella gallinarium) | zone of inhibition at 100 µg/mL [1] | zone of inhibition at 100 µg/mL [2] | zone of inhibition at 100 µg/mL (Candida albicans) | zone of inhibition at 100 µg/mL (Bacillus subtilis) | LD50 (acute toxicity in mice) | zone of inhibition at 100 µg/mL (Mycobacterium avium; [12]) | zone of inhibition at 100 µg/mL (Salmonella gallinarium; conc 0.1 mg/ml, disc 6.35 mm) | zone of inhibition at 100 µg/mL ([1]; conc 0.1 mg/ml, disc 6.35 mm) | zone of inhibition at 100 µg/mL ([2]; conc 0.1 mg/ml, disc 6.35 mm) | zone of inhibition at 100 µg/mL (Candida albicans; conc 0.1 mg/ml, disc 6.35 mm) | zone of inhibition at 100 µg/mL (Bacillus subtilis; conc 0.1 mg/ml, disc 6.35 mm) | zone of inhibition at 100 µg/mL [3, 13] | zone of inhibition at 100 µg/mL (Neurospora crassa; conc 0.1 mg/ml, disc 6.35 mm) | zone of inhibition at 100 µg/mL (Proteus vulgaris; [14]) | zone of inhibition at 100 µg/mL (Staphylococcus aureus; [15]) | zone of inhibition at 100 µg/mL (Pseudomonas solanacearum) | zone of inhibition at 100 µg/mL (Escherichia coli; [16]) | zone of inhibition at 100 µg/mL (Micrococcus luteus; conc 0.1 mg/ml, disc 6.35 mm) | also measured |
| --- | --- | --- | --- | --- | --- | --- | --- | --- | --- | --- | --- | --- | --- | --- | --- | --- | --- | --- | --- | --- | --- |
| [C-]#[N+]C(=CC1=C[C@@H](O)[C@H](O)CC1)C(=CC1CCC(O)CC1)[N+]#[C-] (relative stereo) [Factor C] | 18 mm | 38 mm | 35 mm | 15 mm | 16 mm | 23 mm | < 2.34 mg/kg | – | – | – | – | – | – | – | – | – | – | – | – | – | zone of inhibition at 100 µg/mL [3]: 15 mm; zone of inhibition at 100 µg/mL (Neurospora crassa): 22 mm; zone of inhibition at 100 µg/mL (Proteus vulgaris): 26 mm; zone of inhibition at 100 µg/mL (Staphylococcus aureus): 16 mm; zone of inhibition at 100 µg/mL (Pseudomonas solanacearum; conc 0.1 mg/ml): 20 mm; zone of inhibition at 100 µg/mL (Escherichia coli; [4]): 24 mm; zone of inhibition at 100 µg/mL (Escherichia coli; [5]): 20 mm; Percent Tumor Inhibition (Adenocarcinoma 755; 0.125 mg/kg i.p., daily for 10 days): 60%; Toxic Deaths (Adenocarcinoma 755; 0.125 mg/kg i.p., daily for 10 days, of 10 mice tested): 0; Percent Tumor Inhibition (Adenocarcinoma 755; [6]): 47%; Toxic Deaths (Adenocarcinoma 755; [7]): 0; Percent Tumor Inhibition (Adenocarcinoma 755; [8]): 72%; Toxic Deaths (Adenocarcinoma 755; [9]): 5; zone of inhibition at 100 µg/mL (Serratia marcescens): 15 mm; zone of inhibition at 100 µg/mL (Micrococcus luteus): 33 mm |
| [C-]#[N+]C(=CC1=C[C@@H](O)[C@@H](O)CC1)C(=CC1CCC(OC(=O)C=C(C)C)CC1)[N+]#[C-] (relative stereo) [Factor E] | 15 mm | 19 mm | 30 mm | 43 mm | 29 mm | 29 mm | 3.54 mg/kg | – | – | – | – | – | – | – | – | – | – | – | – | – | zone of inhibition at 100 µg/mL [3]: 20 mm; zone of inhibition at 100 µg/mL (Neurospora crassa): 34 mm; zone of inhibition at 100 µg/mL (Proteus vulgaris): 21 mm; zone of inhibition at 100 µg/mL (Staphylococcus aureus): 21 mm; zone of inhibition at 100 µg/mL (Pseudomonas solanacearum; conc 0.1 mg/ml): 24 mm; zone of inhibition at 100 µg/mL (Escherichia coli; [4]): 18 mm; zone of inhibition at 100 µg/mL (Escherichia coli; [5]): 16 mm; Percent Tumor Inhibition (Adenocarcinoma 755; [6]): 22%; Toxic Deaths (Adenocarcinoma 755; [7]): 0; Percent Tumor Inhibition (Adenocarcinoma 755; [8]): 74%; Toxic Deaths (Adenocarcinoma 755; [9]): 3; Percent Tumor Inhibition (Adenocarcinoma 755; [10]): toxic; Toxic Deaths (Adenocarcinoma 755; [11]): 10; zone of inhibition at 100 µg/mL (Pseudomonas aeruginosa): 17 mm; zone of inhibition at 100 µg/mL (Serratia marcescens): 17 mm; zone of inhibition at 100 µg/mL (Micrococcus luteus): 24 mm |
| [C-]#[N+]C(=CC1=C[C@@H](OC(C)=O)[C@H](O)CC1)C(=CC1CCC(OC(=O)C=C(C)C)CC1)[N+]#[C-] (relative stereo) [Factor H] | – | – | – | – | – | – | – | 10 mm | 16 mm | 24 mm | 35 mm | 18 mm | 16 mm | 16 mm | 33 mm | 17 mm | 20 mm | 18 mm | 15 mm | 27 mm | zone of inhibition at 100 µg/mL (Escherichia coli; [17]): 10 mm; zone of inhibition at 100 µg/mL (Pseudomonas aeruginosa; conc 0.1 mg/ml, disc 6.35 mm): 11 mm; zone of inhibition at 100 µg/mL (Serratia marcescens; [18]): 10 mm |
| [C-]#[N+]C(=CC1=C[C@@H](OC)[C@@H](O)CC1)C(=CC1CCC(OC(=O)C=C(C)C)CC1)[N+]#[C-] (relative stereo) [Factor J] | 14 mm | 17 mm | 25 mm | 37 mm | 22 mm | 19 mm | – | – | – | – | – | – | – | – | – | – | – | – | – | – | zone of inhibition at 100 µg/mL [3]: 19 mm; zone of inhibition at 100 µg/mL (Neurospora crassa): 36 mm; zone of inhibition at 100 µg/mL (Proteus vulgaris): 22 mm; zone of inhibition at 100 µg/mL (Staphylococcus aureus): 23 mm; zone of inhibition at 100 µg/mL (Pseudomonas solanacearum; conc 0.1 mg/ml): 21 mm; zone of inhibition at 100 µg/mL (Escherichia coli; [4]): 15 mm; zone of inhibition at 100 µg/mL (Escherichia coli; [5]): 13 mm; zone of inhibition at 100 µg/mL (Pseudomonas aeruginosa): 12 mm; zone of inhibition at 100 µg/mL (Serratia marcescens): 12 mm; zone of inhibition at 100 µg/mL (Micrococcus luteus): 29 mm |
| O=CNC=Cc1ccc(O)cc1 [Factor B] | – | – | – | – | – | – | > 75 mg/kg | – | – | 21 mm | 19 mm | 11 mm | 21 mm | 14 mm | 24 mm | – | 25 mm | – | – | 22 mm | – |
| [C-]#[N+]C(=Cc1ccc(O)cc1)C(=CC1CCC(OC(=O)C=C(C)C)CC1)[N+]#[C-] (stereo not shown) [Factor D] | – | – | – | – | – | – | 0.992 mg/kg | 13 mm | 14 mm | 21 mm | 21 mm | 19 mm | 18 mm | 13 mm | 22 mm | 12 mm | 18 mm | 17 mm | 15 mm | 26 mm | zone of inhibition at 100 µg/mL (Escherichia coli; [17]): 11 mm; zone of inhibition at 100 µg/mL (Pseudomonas aeruginosa; conc 0.1 mg/ml, disc 6.35 mm): 13 mm; zone of inhibition at 100 µg/mL (Serratia marcescens; [18]): 12 mm |
| [C-]#[N+]C(=CC1CCC(OC(=O)C=C(C)C)CC1)C(=CC1(OC(C)=O)C=CC(=O)CC1)[N+]#[C-] (stereo not shown) [Factor F] | – | – | – | – | – | – | 5 mg/kg | 17 mm | 11 mm | 27 mm | 20 mm | 21 mm | 27 mm | 22 mm | 33 mm | 20 mm | 26 mm | 10 mm | 17 mm | 30 mm | Percent Tumor Inhibition (Adenocarcinoma 755; [6]): 51%; Toxic Deaths (Adenocarcinoma 755; [7]): 0; Percent Tumor Inhibition (Adenocarcinoma 755; [8]): 69%; Toxic Deaths (Adenocarcinoma 755; [9]): 0; Percent Tumor Inhibition (Adenocarcinoma 755; [10]): 91%; Toxic Deaths (Adenocarcinoma 755; [11]): 2; Percent Tumor Inhibition (Adenocarcinoma 755; 2.00 mg/kg i.p., daily for 10 days): toxic; Toxic Deaths (Adenocarcinoma 755; 2.00 mg/kg i.p., daily for 10 days, of 10 mice tested): 10 |
| [C-]#[N+]C(=CC1CCC(OC(=O)C=C(C)C)CC1)C(=CC1(OC(C)=O)C=CC(O)CC1)[N+]#[C-] (stereo not shown) [Factor G] | – | – | – | – | – | – | 7.94 mg/kg | 10 mm | 23 mm | 33 mm | 44 mm | 35 mm | 30 mm | 24 mm | 41 mm | 27 mm | 36 mm | 31 mm | 20 mm | 32 mm | zone of inhibition at 100 µg/mL (Escherichia coli; [17]): 18 mm; Percent Tumor Inhibition (Adenocarcinoma 755; 0.50 mg/kg i.p., days 1, 5 and 9): 10%; Toxic Deaths (Adenocarcinoma 755; 0.50 mg/kg i.p., days 1, 5 and 9, of 10 mice tested): 0; Percent Tumor Inhibition (Adenocarcinoma 755; 0.70 mg/kg i.p., days 1, 5 and 9): 20%; Toxic Deaths (Adenocarcinoma 755; 0.70 mg/kg i.p., days 1, 5 and 9, of 10 mice tested): 0; Percent Tumor Inhibition (Adenocarcinoma 755; 1.00 mg/kg i.p., days 1, 5 and 9): 54%; Toxic Deaths (Adenocarcinoma 755; 1.00 mg/kg i.p., days 1, 5 and 9, of 10 mice tested): 1; Percent Tumor Inhibition (Adenocarcinoma 755; 1.40 mg/kg i.p., days 1, 5 and 9): 72%; Toxic Deaths (Adenocarcinoma 755; 1.40 mg/kg i.p., days 1, 5 and 9, of 10 mice tested): 6; Percent Tumor Inhibition (Adenocarcinoma 755; 2.00 mg/kg i.p., days 1, 5 and 9): 60%; Toxic Deaths (Adenocarcinoma 755; 2.00 mg/kg i.p., days 1, 5 and 9, of 10 mice tested): 7; Percent Tumor Inhibition (Adenocarcinoma 755; 2.80 mg/kg i.p., days 1, 5 and 9): toxic; Toxic Deaths (Adenocarcinoma 755; 2.80 mg/kg i.p., days 1, 5 and 9, of 10 mice tested): 10; zone of inhibition at 100 µg/mL (Pseudomonas aeruginosa; conc 0.1 mg/ml, disc 6.35 mm): 23 mm; zone of inhibition at 100 µg/mL (Serratia marcescens; [18]): 17 mm |
